# Measured values from article PMC5071873, “The Effects of Puerarin on Rat Ventricular Myocytes and the Potential Mechanism” (Scientific Reports, 2016).
# Read-outs that look alike come from different tables or passages of the source.
# Key:
# Type in all cases: cell-based
# Kv7.1 [1] = biological target: T1, Kv7.1 (Homo sapiens, UniProt P51787); assay: Whole-cell patch clamp of Kv7.1 currents (voltage steps) in transfected HEK293 cells; conditions: for IC50: HEK293, non-linear Hill fit, n = 6 each point; for Kv7.1-tail current density / Kv7.1 current density: at 40 mV; for Kv7.1-tail current density: control 10.4 ± 0.6; for Kv7.1 current density: control 24.3 ± 1.1
# T1 construct: expressed in transfected cells; host or cells: HEK293
# Protocol: (§1) The Tyrode’s solution contained (mM): 126 NaCl, 5.4 KCl, 1.8 CaCl2, 1 MgCl2, 0.33 NaH2PO4, 10 HEPES and 10 glucose, pH 7.4 (adjusted with NaOH). The Ca^2+-free Tyrode’s solution was prepared by removing CaCl2 from the Tyrode’s solution. The Kreb’s solution used for cell storage contained (mM): 70 glutamic acid, 30 KCl, 15 taurine, 0.5 MgCl2, 10 KH2PO4, 0.5 EGTA, 10 HEPES, 10 glucose, and 1% albumin, pH 7.4 (adjusted with KOH). The enzyme solution used for the rat cardiomyocyte isolation contained 0.08 g/L collagenase (type II) and 1.0 g/L BSA in Kreb’s solution. For action potential recording on cardiomyocyte, the pipette solution contained (mM): 100 potassium aspartate, 30 KCl, 1 MgCl2, 5 Mg-ATP, 5 EGTA, 5 HEPES, pH 7.3 (adjusted with KOH); the Tyrode’s solution was used as the standard bath solution. For whole-cell recording of IKs on myocytes, the pipette solution contained (mM): 125 potassium aspartate, 20 KCl, 1 MgCl2, 5 Mg-ATP, 10 EGTA, 5 HEPES, pH 7.3 (adjusted with KOH); the bath solution contained (mM): 132 NaCl, 4 KCl, 1.8 CaCl2, 1.2 MgCl2, 10 HEPES, 5 glucose, pH 7.4 (adjusted with NaOH). 3 μM nifedipine and 5 μM E-4031 were used to block the calcium current and IKr, respectively. For whole-cell recording on HEK-293 cells, the pipette solution contained (mM): 140 KCl, 2 MgCl2, 10 HEPES, 0.1 EGTA, 4 K2-ATP, pH 7.3 (adjusted with KOH); the bath solution contained (mM): 120 NaCl, 5 KCl, 1.5 CaCl2, 1 MgCl2, 10 HEPES, 10 glucose, pH 7.4 (adjusted with NaOH). For single-channel recording, the pipette solution (extracellular) contained (mM): 145 KCl, 10 HEPES, 10 glucose, pH 7.4 (adjusted with KOH); the bath solution (intracellular) contained (mM): 145 KCl, 1.2 MgCl2, 10 HEPES, 0.1 EGTA, pH 7.38 (adjusted with KOH).
# (§2) Cell suspensions were transferred into a chamber on the stage of a Nikon Eclipse Ti inverted microscope (Tokyo, Japan). The whole-cell recordings were performed using isolated single ventricular myocytes. Patch electrodes were pulled from a horizontal microelectrode puller (P-1000, Sutter Instrument Co, USA) and fire polished to final tip resistance of 4.0–8.0 MΩ when filled with internal solutions. Signals were amplified with an Axopatch 200B amplifier (Axon Instruments, USA) and filtered at 1 kHz. The pCLAMP 9.0 software was used to generate current and voltage clamp protocols, acquire data, and analyse the current traces. The whole-cell series resistance was compensated to more than 80%. All of the experiments were performed at room temperature (22 ± 1 °C). The whole-cell IK1 was elicited by a ramp voltage protocol from −140 to + 40 mV in 1 s, or at a 0 mV holding potential to test potentials from −140 to + 40 mV in 10 mV increments. The IK1 was calculated as the difference between the peak inward current and the holding current level. The whole-cell Kv7.1/IKs were elicited from a −30 mV holding potential to test potentials from −80 to + 40 mV in 10 mV increments.
# (§3) Human Kir2.1 cDNA, Kir2.3 cDNA, Kv7.1 cDNA and KCNE1 cDNA, was cloned in Human Embryonic Kidney 293 cells, respectively. In some cases, Kv7.1 cDNA and KCNE1 cDNA were simultaneously cloned in Human Embryonic Kidney 293 cells.
# [2] = biological target: T2, IKs channels (KCNQ and KCNE) (Homo sapiens, UniProt P51787); assay: Whole-cell patch clamp of IKs currents (Kv7.1 + KCNE1, voltage steps) in transfected HEK293 cells; conditions: for IC50: HEK293, non-linear Hill fit, n = 6 each point; for IKs-tail current density / IKs current density: at 40 mV; for IKs-tail current density: control 23.5 ± 1.2; for IKs current density: control 33.8 ± 3.2
# T2 construct: expressed in transfected cells; host or cells: HEK293
# Protocol: as §1, §2, §3
# Kv7.1 [3] = biological target: T1, Kv7.1; assay: Single-channel inside-out patch clamp recording of Kv7.1; conditions: puerarin 100 μM, inside-out, intracellular side
# Protocol: as §1, with “3 μM nifedipine and 5 μM E-4031 were used to block the calcium current and IKr, respectively. For whole-cell recording on HEK-293 cells, the pipette solution contained (mM): 140 KCl, 2 MgCl2, 10 HEPES, 0.1 EGTA, 4 K2-ATP, pH 7.3 (adjusted with KOH); the bath solution contained (mM): 120 NaCl, 5 KCl, 1.5 CaCl2, 1 MgCl2, 10 HEPES, 10 glucose, pH 7.4 (adjusted with NaOH). For single-channel recording, the pipette solution (extracellular) contained (mM): 145 KCl, 10 HEPES, 10 glucose, pH 7.4 (adjusted with KOH); the bath solution (intracellular) contained (mM): 145 KCl, 1.2 MgCl2, 10 HEPES, 0.1 EGTA, pH 7.38 (adjusted with KOH).” left out
# Single-channel activity was recorded at a series of holding levels ranging from 10 mV of 50 mV. […] Single-channel events were listed and analysed by pclampfit 9.0 (single-channel search-in-analyse function). […]
# Kir2.1 = biological target: T3, Kir2.1 (Homo sapiens, UniProt P63252); assay: Whole-cell patch clamp of Kir2.1 currents (ramp voltage protocol) in transfected HEK293 cells
# T3 construct: expressed in transfected cells; host or cells: HEK293
# T3 sequence (P63252 1-427): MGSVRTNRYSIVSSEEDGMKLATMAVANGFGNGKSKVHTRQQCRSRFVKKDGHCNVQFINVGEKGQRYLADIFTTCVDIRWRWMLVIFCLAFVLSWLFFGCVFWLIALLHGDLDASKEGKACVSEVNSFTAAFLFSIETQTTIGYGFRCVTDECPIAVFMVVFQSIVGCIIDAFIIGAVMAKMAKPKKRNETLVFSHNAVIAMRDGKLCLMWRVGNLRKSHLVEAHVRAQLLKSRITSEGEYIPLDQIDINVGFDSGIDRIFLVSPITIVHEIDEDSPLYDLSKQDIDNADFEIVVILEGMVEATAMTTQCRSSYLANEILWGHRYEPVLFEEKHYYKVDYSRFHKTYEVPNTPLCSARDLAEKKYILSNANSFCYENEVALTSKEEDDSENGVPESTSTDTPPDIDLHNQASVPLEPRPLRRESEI
# Protocol: as §1, §2, §3
structure (smiles),measurement,setting,value
"O=c1c(-c2ccc(O)cc2)coc2c([C@@H]3O[C@H](CO)[C@@H](O)[C@H](O)[C@H]3O)c(O)ccc12 [Puerarin, 8-c-glucoside of daidzein]",IC50,"Kv7.1 [1]; read-out: IC50, inhibition of Kv7.1 at the peak currents",36 µM
same,IC50,"Kv7.1 [1]; read-out: IC50, inhibition of Kv7.1 at the tail currents",39.8 µM
same,"Hill coefficient, inhibition of Kv7.1",Kv7.1 [1]; non-linear Hill fit,0.997
same,Kv7.1-tail current density,Kv7.1 [1]; puerarin 10 μM,8.8 ± 0.7 pA/pF
same,Kv7.1 current density,Kv7.1 [1]; puerarin 10 μM,19.1 ± 1.0 pA/pF
same,"effect on Kv7.1 current activated by isoproterenol, forskolin or 8-Br-cAMP",Kv7.1 [1]; puerarin 100 μM,antagonized such activation effect
same,Kv7.1-tail current density,Kv7.1 [1]; puerarin 100 μM,3.8 ± 0.6 pA/pF
same,Kv7.1 current density,Kv7.1 [1]; puerarin 100 μM,7.9 ± 0.8 pA/pF
same,Kv7.1-tail current density,Kv7.1 [1]; puerarin 1 mM,2.5 ± 0.9 pA/pF
same,Kv7.1 current density,Kv7.1 [1]; puerarin 1 mM,6.1 ± 0.4 pA/pF
same,Kv7.1-tail current density,Kv7.1 [1]; puerarin 10 mM,2.0 ± 0.5 pA/pF
same,Kv7.1 current density,Kv7.1 [1]; puerarin 10 mM,4.8 ± 0.8 pA/pF
same,IC50,"[2]; read-out: IC50, inhibition of IKs at the peak currents",55.6 µM
same,IC50,"[2]; read-out: IC50, inhibition of IKs at the tail currents",59.8 µM
same,"Hill coefficient, inhibition of IKs",[2]; non-linear Hill fit,0.989
same,IKs-tail current density,[2]; puerarin 10 μM,17.8 ± 1.5 pA/pF
same,IKs current density,[2]; puerarin 10 μM,25.6 ± 2.4 pA/pF
same,IKs-tail current density,[2]; puerarin 100 μM,9.7 ± 1.1 pA/pF
same,IKs current density,[2]; puerarin 100 μM,15.7 ± 1.9 pA/pF
same,IKs-tail current density,[2]; puerarin 1 mM,6.4 ± 1.2 pA/pF
same,IKs current density,[2]; puerarin 1 mM,6.0 ± 1.3 pA/pF
same,IKs-tail current density,[2]; puerarin 10 mM,5.2 ± 1.3 pA/pF
same,IKs current density,[2]; puerarin 10 mM,5.4 ± 1.7 pA/pF
same,open probability of Kv7.1 channel,Kv7.1 [3],significantly reduced
same,effect on Kir2.1 currents at low concentrations,"Kir2.1; 10 μM, 1 mM (so in the source)",little effect
same,"saturation dosage, inhibition of Kir2.1",Kir2.1; HEK293,50 mM
same,maximal inhibitory effect upon Kir2.1,"Kir2.1; HEK293, n = 5 each point",53.11 ± 1.84%
same,IC50,"Kir2.1; HEK293, non-linear Hill fit, n = 5 each point, read-out: IC50, inhibition of Kir2.1 currents",1270 µM
same,"Hill coefficient, inhibition of Kir2.1",Kir2.1; non-linear Hill fit,0.990
